Here are results for seven compounds from paper PMC6356855, “Two New Succinimide Derivatives Cladosporitins A and B from the Mangrove-derived Fungus Cladosporium sp. HNWSW-1” (Marine Drugs, 2018).

For orientation: IC50 means the concentration at which inhibition is half-maximal. Low values mean higher potency, high ones lower potency.

The subject of assay [1] is Hela cell line. Put plainly: MTT cytotoxicity assay, Hela. As to conditions: MTT method, mean ± SD, n = 3. Format: cell-based. How it is done:
(§1) The MTT method optimized by Mosmann et al. was performed in vitro to test the cytotoxic activity of compounds 1–6. Adriamycin was used as a positive control and the medium without the test compound was used as a negative control in the bioassay.
In general terms: Formazan colour is commonly taken as a measure of viable cells.

Assay [2] relates to BEL-7042 cell line. Put plainly: MTT cytotoxicity assay, BEL-7042. Type of assay: cell-based. As to conditions: MTT method, mean ± SD, n = 3. The procedure: as §1
Assay [3] deals with K562 cell line. In words: MTT cytotoxicity assay, K562. Format: cell-based. As to conditions: MTT method, mean ± SD, n = 3. How it is done:
as §1

The test system of assay [4] is SGC-7901 cell line. In words: MTT cytotoxicity assay, SGC-7901. Type of assay: cell-based. The settings on record: MTT method, mean ± SD, n = 3. How it is done: as §1
In assay [5] the target is α-glycosidase. In words: α-glycosidase inhibitory activity assay. Format: biochemical. As to conditions: α-glycosidase inhibition in vitro; mean ± SD, n = 3. The procedure: The method optimized by Jong et al. was performed in vitro to test the α-glucosidase inhibitory activity of compounds 1–5. Acarbose was used as positive control.
Where [6] appears, read: Homo sapiens, K562, cytotoxicity.
Where [7] appears, read: Homo sapiens, SGC-7901, cytotoxicity.

With “1,3,6-trihydroxy-7-(1-hydroxyethyl) anthracene-9,10-dione [Compound 5]”, the IC50 in assay [1] is above 50 µM; in assay [2], above 50 µM; in assay [3] (cytotoxicity) it was above 50 µM; in assay [4] (cytotoxicity), above 50 µM; in assay [5] it was 49.3 ± 10.6 µM.
As to `C[C@H]1O[C@H](O[C@H]2[C@H](O)[C@@H](O)[C@@H](O[C@H]3[C@H](O)[C@@H](O)C(O)O[C@@H]3CO)O[C@@H]2CO)[C@H](O)[C@@H](O)[C@@H]1N[C@H]1C=C(CO)[C@@H](O)[C@H](O)[C@H]1O` (stereo partly drawn) [Acarbose, reference compound], in assay [5], half-maximal inhibition (IC50) was put at 275.7 ± 2.7 µM.
As for `COc1cccc2c1C(=O)c1c(O)c3c(c(O)c1C2=O)C[C@@](O)(C(=O)CO)C[C@@H]3O[C@H]1C[C@H](N)[C@H](O)[C@H](C)O1` [Adriamycin, reference compound], the concentration for half-maximal inhibition (IC50) is 11.5 ± 0.18 µM in assay [1] (Homo sapiens), 11.9 ± 0.37 µM in assay [2], 14.2 ± 0.66 µM in assay [3] (setting [6]) and 6.66 ± 0.2 µM in assay [4] (setting [7]).
Turning to `CCC(C)C=C(C)C1C(C)=CC2(C)CC(C)CCC2C1C(=O)C1C(=O)NC(=O)C1Cc1ccc(O)cc1` (stereo not drawn) [Compound 1, cladosporitin A], the half-maximal inhibitory concentration (IC50) in assay [1] (Homo sapiens) was above 50 µM; in assay [2], above 50 µM; in assay [3] (setting [6]), above 50 µM; in assay [4] (setting [7]) it was above 50 µM; in assay [5] it was above 500 µM.
As to `CCC(C)C=C(C)C1C(C)=CC2(C)CC(C)CCC2C1C(=O)C1C(=O)NC(=O)C1Cc1ccc(O)cc1` (stereo not drawn) [Compound 2, cladosporitin B], the IC50 in assay [1] was above 50 µM; in assay [2] it was 29.4 ± 0.35 µM; in assay [3] (cytotoxicity), 25.6 ± 0.47 µM; in assay [4] (cytotoxicity), 41.7 ± 0.71 µM; in assay [5], above 500 µM.
Consider `C/C=C/c1cc(=O)c2c(C)cc(O)cc2o1` [Compound 3, clapone], for which the concentration for half-maximal inhibition (IC50) was above 50 µM in assay [1] (Homo sapiens); above 50 µM in assay [2]; above 50 µM in assay [3] (setting [6]); above 50 µM in assay [4] (setting [7]); above 500 µM in assay [5].
With `CCC(C)/C=C(\C)[C@H]1C(C)=C[C@@]2(C)C[C@@H](C)CC[C@@H]2[C@H]1C(=O)C1=C/C(=C/c2ccc(O)cc2)NC1=O` (stereo partly drawn) [Compound 4, talaroconvolutin A], the IC50 is 14.9 ± 0.21 µM in assay [1] (Homo sapiens); 26.7 ± 1.1 µM in assay [2]; above 50 µM in assay [3] (setting [6]); above 50 µM in assay [4] (setting [7]); 78.2 ± 2.1 µM in assay [5].
